Experimental data as given in ChEMBL document CHEMBL3044751, “Structure-based design, synthesis, and molecular modeling studies of 1-(benzo[d]thiazol-2-yl)-3-(substituted aryl)urea derivatives as novel anti-Parkinsonian agents” (2012).

Key:
Type in all cases: functional
Conditions in all cases: route intraperitoneal
[1] = tested on: Mus musculus; assay: Antiparkinsonian activity against haloperidol-induced catalepsy in Mus musculus Swiss albino (mouse) assessed as decrease in mean descent time at 100 mg/kg, ip administered 30 min prior to haloperidol injection measured after 150 min
[2] = tested on: Mus musculus; assay: Antiparkinsonian activity against haloperidol-induced catalepsy in Mus musculus Swiss albino (mouse) assessed as decrease in mean descent time at 100 mg/kg, ip administered 30 min prior to haloperidol injection measured after 30 min
[3] = tested on: Mus musculus; assay: Antiparkinsonian activity against haloperidol-induced catalepsy in Mus musculus Swiss albino (mouse) assessed reduction in catalepsy at 100 mg/kg, ip administered 30 min prior to haloperidol injection measured after 30 to 180 min; parameters: scale not given: the % may be the effect or the level left
[4] = tested on: Mus musculus; assay: Antiparkinsonian activity against haloperidol-induced catalepsy in Mus musculus Swiss albino (mouse) assessed as decrease in mean descent time at 100 mg/kg, ip administered 30 min prior to haloperidol injection measured after 60 min
[5] = tested on: Mus musculus; assay: Antiparkinsonian activity against haloperidol-induced catalepsy in Mus musculus Swiss albino (mouse) assessed as decrease in mean descent time at 100 mg/kg, ip administered 30 min prior to haloperidol injection measured after 120 min
[6] = tested on: Mus musculus; assay: Antiparkinsonian activity against haloperidol-induced catalepsy in Mus musculus Swiss albino (mouse) assessed as decrease in mean descent time at 100 mg/kg, ip administered 30 min prior to haloperidol injection measured after 180 min
[7] = tested on: Mus musculus; assay: Antiparkinsonian activity against haloperidol-induced catalepsy in Mus musculus Swiss albino (mouse) assessed as decrease in mean descent time at 100 mg/kg, ip administered 30 min prior to haloperidol injection measured after 90 min
[8] = tested on: Mus musculus; assay: Antiparkinsonian activity against haloperidol-induced oxidative stress in Mus musculus Swiss albino (mouse) assessed reduction in superoxide dismutase activity in brain by measuring malondialdehyde level at 100 mg/kg, ip administered 30 min prior to haloperidol injection by NBT reduction assay
[9] = tested on: Mus musculus; assay: Antiparkinsonian activity against haloperidol-induced oxidative stress in Mus musculus Swiss albino (mouse) assessed reduction in glutathione level in brain by measuring malondialdehyde level at 100 mg/kg, ip administered 30 min prior to haloperidol injection
[10] = tested on: Mus musculus; assay: Antiparkinsonian activity against haloperidol-induced oxidative stress in Mus musculus Swiss albino (mouse) assessed reduction in lipid peroxidation in brain by measuring malondialdehyde level at 100 mg/kg, ip administered 30 min prior to haloperidol injection by TBARS assay
[11] = tested on: Mus musculus; assay: Antiparkinsonian activity against haloperidol-induced oxidative stress in Mus musculus Swiss albino (mouse) assessed reduction in glutathione peroxidase activity in brain by measuring malondialdehyde level at 100 mg/kg, ip administered 30 min prior to haloperidol injection

Compound | Time [1] | Time [2] | Activity [3] | Time [4] | Time [5] | Time [6] | Time [7] | Activity [8] | Activity [9] | Activity [10] | Activity [11]
COc1ccc(NC(=O)Nc2nc3ccccc3s2)cc1 | 180 s | 43 s | 53.1% | 69 s | 160 s | 181 s | 117 s | – | – | – | –
O=C(Nc1nc2ccccc2s1)Nc1ccccc1F | 223 s | 81 s | 30.8% | 145 s | 207 s | 241 s | 193 s | – | – | – | –
O=C(Nc1ccc(F)cc1)Nc1nc2ccccc2s1 | 234 s | 70 s | 29.8% | 131 s | 219 s | 263 s | 188 s | – | – | – | –
O=C(Nc1nc2ccccc2s1)Nc1ccccc1Cl | 212 s | 57 s | 37.1% | 98 s | 205 s | 289 s | 134 s | – | – | – | –
O=C(Nc1cccc(Cl)c1)Nc1nc2ccccc2s1 | 191 s | 101 s | 35.6% | 144 s | 182 s | 230 s | 169 s | – | – | – | –
O=C(Nc1ccc(Cl)cc1)Nc1nc2ccccc2s1 | 207 s | 78 s | 37.4% | 129 s | 190 s | 220 s | 166 s | – | – | – | –
O=C(Nc1nc2ccccc2s1)Nc1cc(C(F)(F)F)ccc1Cl | 129 s | 77 s | 56.3% | 89 s | 118 s | 173 s | 114 s | – | – | – | –
O=C(Nc1nc2ccccc2s1)Nc1ccccc1[N+](=O)[O-] | 99 s | 23 s | 71.4% | 56 s | 85 s | 130 s | 77 s | – | – | – | –
O=C(Nc1ccc([N+](=O)[O-])cc1)Nc1nc2ccccc2s1 | 234 s | 90 s | 30.5% | 138 s | 199 s | 253 s | 181 s | – | – | – | –
Cc1ccccc1NC(=O)Nc1nc2ccccc2s1 | 180 s | 66 s | 46.9% | 101 s | 166 s | 198 s | 134 s | – | – | – | –
Cc1ccc(NC(=O)Nc2nc3ccccc3s2)cc1 | 171 s | 72 s | 47.2% | 97 s | 160 s | 185 s | 155 s | – | – | – | –
COc1ccccc1NC(=O)Nc1nc2ccccc2s1 | 95 s | 32 s | 75.9% | 34 s | 72 s | 103 s | 65 s | 2.12 U/mg | 12.34 µg/g | 2.99 nmol/mg | 1.65 U/g
COc1ccc(NC(=O)Nc2nc3ccccc3s2)c(OC)c1 | 107 s | 26 s | 69.8% | 41 s | 94 s | 149 s | 78 s | – | – | – | –
COc1cc(NC(=O)Nc2nc3ccccc3s2)cc(OC)c1OC | 115 s | 37 s | 70.1% | 46 s | 89 s | 122 s | 81 s | – | – | – | –
O=C(Nc1ccc(Oc2ccccc2)cc1)Nc1nc2ccccc2s1 | 189 s | 51 s | 50.5% | 67 s | 161 s | 196 s | 126 s | – | – | – | –
O=C(NCc1ccco1)Nc1nc2ccccc2s1 | 85 s | 18 s | 77.3% | 29 s | 81 s | 95 s | 72 s | 1.87 U/mg | 16.53 µg/g | 3.12 nmol/mg | 1.36 U/g
O=C(Nc1nc2ccccc2s1)Nc1ccccc1Br | 201 s | 118 s | 36.7% | 128 s | 173 s | 224 s | 156 s | – | – | – | –
O=C(Nc1ccc(Br)cc1)Nc1nc2ccccc2s1 | 211 s | 87 s | 35.4% | 132 s | 196 s | 216 s | 178 s | – | – | – | –
O=C(CCCN1CCC(O)(c2ccc(Cl)cc2)CC1)c1ccc(F)cc1 [HALOPERIDOL] | 300 s | 155 s | – | 242 s | 300 s | 300 s | 264 s | 0.85 U/mg | 5.57 µg/g | 4.92 nmol/mg | 0.68 U/g
N[C@@H](Cc1ccc(O)c(O)c1)C(=O)O [LEVODOPA] | 122 s | 32 s | 65.6% | 49 s | 119 s | 137 s | 99 s | – | – | – | –
Nc1nc2c(cnn2CCc2ccccc2)c2nc(-c3ccco3)nn12 [SCH-58261] | 58 s | 11 s | 86.4% | 19 s | 45 s | 72 s | 36 s | – | – | – | –
